# Columns and labels:
# [1] = test system: SW620 cells; assay: WST-8 cytotoxicity assay, SW620; conditions: read-out: IC50 SW620; human colon cancer cell, 72 h, mean ± SE (n = 3)
# Procedure: With a range of chromophore analogues in hand, their toxicity to SW620 cells was investigated by WST assays.
# Basically, the evaluation was performed using methods previously reported by our group[20],[23]. Cytotoxic activities of compounds against MIA PaCa-2 (American Type Culture Collection), SW620 (European Collection of Authenticated Cell Cultures) were measured by WST-8 assay according to manufacturer’s protocol. Briefly, cells (1 × 10^4 cells/well) in a 96-well plate were cultured in medium (for MIA PaCa-2, D-MEM (Wako, Japan) containing 10% fetal bovine serum (Funakoshi, Japan), 100 units/mL penicillin G and 100 µg/mL streptomycin (Wako, Japan), for SW620, RPMI-1640 (Wako, Japan) containing 10% fetal bovine serum, 100 units/mL penicillin G and 100 µg/mL streptomycin) were cultured at 37 °C for 24 h under 5% CO2 atmosphere. Then, cells were treated with test compounds (final DMSO concentration was 1%) at 37 °C for 72 h under 5% CO2 atmosphere. Then, cells were treated with a solution of Cell Counting Kit-8® (Dojindo, Japan) for 3 h. After that, cell viabilities were determined based on the measurement of absorption at 450 nm of the wells by using TECAN Infinite® M200 microplate reader. The results were expressed as a percentage of the negative control (cells treated with DMSO only), and that value was fixed at 100%.
# [2] = parameters: method as in PMID 2737217; conditions: doses of 60 and 120 μg/m^2; cited from earlier work
# [3] = Serum biochemistry / blood examination of treated mice; assay type: in vivo; conditions: 0.4 µg/mouse i.p., Day 14
# Procedure: Toxicity Body weight change is an indicator of systemic toxicity. Accordingly, the body weights of mice intraperitoneally treated with different doses (0.04 and 0.4 µg/mouse) of either 1 or 3 were measured (Fig. S1). […] A blood hematological examination (including nineteen parameters) was also conducted on these mice on Day 14 (Fig. S2). There were no significant changes in almost any of the parameters in the mice treated with either 1 or 3 at doses of 0.04 or 0.4 µg/mouse.
# Male BALB/c mice (7 weeks old) were purchased from Charles River Laboratories Japan, Inc. Each compound was intraperitoneally injected daily for 14 days. […] Serum was collected by centrifuging blood at 5000 rpm for 10 min. Biochemistry was performed in Oriental Yeast Co., Ltd, Japan.
# [4] = test system: HIF-1α-mediated transcription; assay: HRE reporter gene assay in SW620 cells overexpressing HIF-1α; assay type: cell-based, human; conditions: SW620 transiently overexpressing HIF-1α, 16 h
# Excerpt: Echinomycin is known to inhibit the HIF-1 pathway by inhibiting the binding of HIF-1α to HRE[15],[21],[22]. The ability of 3 to inhibit HIF-1α-mediated transcription was investigated by using an HRE reporter gene assay in SW620 cells transiently overexpressing HIF-1α.
# Figure 5 Effect of echinomycin (1), 2 and 3 on HIF-1α-dependent transcription in SW620 cells. SW620 cells were transiently transfected with empty vector pCI-neo-3 × FLAG or HIF-1α expression vector pCI-neo-3 × FLAG-HIF-1α, together with pGL3-5 × HRE-Luc and pGL4.75 [hRluc/CMV]. One day after transfection, echinomycin (1), 2, or 3 was added to the cell culture media and incubated for an additional 16 h. The cells were lysed, and a dual luciferase assay was performed. Firefly luciferase activity was normalized to Renilla luciferase activity, and the data are presented as fold induction relative to the values obtained in cells DMSO-treated cells transfected with empty vector. The error bars represent standard deviations (n = 3). *P < 0.05 and **P < 0.01 compared to DMSO-treated cells transfected with HIF-1α (Student’s test).
# Basically, the assay was performed using methods previously reported by our group. […]
structure (smiles),measurement,setting,value
"CS[C@H]1SC[C@H]2C(=O)N(C)[C@@H](C(C)C)C(=O)OC[C@@H](NC(=O)c3cnc4ccccc4n3)C(=O)N[C@@H](C)C(=O)N(C)[C@@H]1C(=O)N(C)[C@@H](C(C)C)C(=O)OC[C@@H](NC(=O)c1cnc3ccccc3n1)C(=O)N[C@@H](C)C(=O)N2C [Compound 1, Echinomycin]",IC50,[1],2.5 ± 0.8 nM
same,toxicity at lower doses in human clinical trials,[2],no observed toxicity
same,alanine aminotransferase (ALT),[3],increase
same,aspartate aminotransferase (AST),[3],increase
same,lactate dehydrogenase (LDH),[3],increase
same,total bilirubin (T-BIL),[3],decrease
same,HIF-1α-induced HRE reporter activity,[4],inhibited

# — PMC10985088, “Synthesis and biological evaluation of echinomycin analogues as potential colon cancer agent” (Scientific Reports, 2024)
